Converted amounts (≈) assume the structure as drawn. Counter-ions that a name gives are not always drawn.
Legend:
γ globin gene = γ globin gene induction by relative quantitative RT-PCR; format: cell-based, human
Procedure: After 3 days of drug-treatment, the total RNA was extracted by RNA Spin mini kit (Ge-Healthcare) and reverse-transcription was performed by using superscript II (Invitrogen) followed the manufactors instruction. Quantitative PCR was performed on LightCycler with using STBR green master mix followed the manufactors instruction (Roche). The absolute quantitative RT-PCR was calculated by the standard curve with supplying a known copy number of plasmids. The relative quantitative RT-PCR was normalized to the expression levels of the β-actin and compared to the mock control.
To search for new agents, which are capable of inducing the expression of γ globin, a series of naphthalimide derivatives with various substituent(s) on the naphthalene ring and the heterocyclic N-atom (A1-A14, B1-B4, C1-C5, D1, and E1-E3, FIG. 2) were synthesized. These derivatives were subjected to evaluating the γ globin induction abilities in differentiated peripheral blood mononuclear cells (PBMCs). The PBMCs isolated from the peripheral blood of donors were expanded and differentiated for a total of 14 days in a two-phase liquid culture. The resulted primary erythoid cells were then treated with different dosages of naphthalimide derivatives individually for another 3 days. The expression levels of the endogenous γ globin gene were estimated by relative quantitative RT-PCR and the proliferation rates of these cells were examined by AlamarBlue cell viability assay. […]; 2-4.5-folds induction of the γ globin gene expression in the compounds-treated cells (FIG. 3).

[1] = system: primary human erythroid cells; test: AlamarBlue cell viability / proliferation assay; details: for IC50: Table 1a, concentration reducing proliferation rate of primary human erythroid cells by 50%, 3 days
[2] = solubility in DMSO and H2O; format: physicochemical; details: DMSO, organic solvent or mixture; read-out: solubility DMSO

melting point	Structure (SMILES)	IC50 [1]	also measured
> 280 °C	CN(C)CCN1C(=O)c2cccc3c(Cl)ccc(c23)C1=O (as salt: hydrochloride) [Compound B4, N-(2-dimethylamino-ethyl)-4-chloro-1,8-naphthalimide hydrochloride]	–	–
> 280 °C	CN(C)CCCN1C(=O)c2cccc3c(N)ccc(c23)C1=O (as salt: hydrochloride) [Compound E3, N-(3-dimethylamino-propyl)-4-amino-1,8-naphthalimide hydrochloride]	–	–
254.5 to 256 °C	O=C(O)CCCc1ccc(N2C(=O)c3cccc4c([N+](=O)[O-])ccc(c34)C2=O)cc1 [Compound A5, N-(4-Butyric acid-phenyl)-4-nitro-1,8-naphthalimide]	6.7 µM	–
263 to 265.5 °C	O=C1c2cccc3c(Cl)ccc(c23)C(=O)N1c1ccccc1 [Compound A6, N-Phenyl-4-chloro-1,8-naphthalimide]	> 100 µM	–
> 280 °C	COc1cccc(N2C(=O)c3cccc4c(Cl)ccc(c34)C2=O)c1 [Compound A7, N-(3-Methoxy-phenyl)-4-chloro-1,8-naphthalimide]	> 100 µM	–
278 to 279 °C	O=C1c2cccc3c(Cl)ccc(c23)C(=O)N1c1cccc(C(F)(F)F)c1 [Compound A8, N-(3-Trifluoromethyl-phenyl)-4-chloro-1,8-naphthalimide]	> 100 µM	–
> 280 °C	O=C1c2cccc3c(Cl)ccc(c23)C(=O)N1c1cccc(Br)c1 [Compound A9, N-(3-Bromo-phenyl)-4-chloro-1,8-naphthalimide]	> 100 µM	–
273 to 275 °C	O=C1c2cccc3c(Cl)ccc(c23)C(=O)N1c1cccc(Cl)c1 [Compound A10, N-(3-Chloro-phenyl)-4-chloro-1,8-naphthalimide]	> 100 µM	–
> 280 °C	O=C1c2cccc3c(Cl)ccc(c23)C(=O)N1c1ccc(F)c(Br)c1 [Compound A11, N-(3-Bromo-4-fluoro-phenyl)-4-chloro-1,8-naphthalimide]	> 100 µM	–
274 to 276 °C	O=C1c2cccc3c(Cl)ccc(c23)C(=O)N1c1ccc(F)cc1 [Compound A12, N-(4-Fluoro-phenyl)-4-chloro-1,8-naphthalimide]	> 100 µM	–
> 280 °C	O=C1c2cccc3c(Cl)ccc(c23)C(=O)N1c1ccc(Br)cc1 [Compound A13, N-(4-Bromo-phenyl)-4-chloro-1,8-naphthalimide]	> 100 µM	–
> 280 °C	O=C1c2cccc3c(Cl)ccc(c23)C(=O)N1c1ccc(Cl)c(Cl)c1 [Compound A14, N-(3,4-Dichloro-phenyl)-4-chloro-1,8-naphthalimide]	> 100 µM	–
131 to 133 °C	CN(C)CCN1C(=O)c2cccc3c([N+](=O)[O-])ccc(c23)C1=O [Compound B2, N-(2-Dimethylamino-ethyl)-4-nitro-1,8-naphthalimide]	2.6 µM	–
209 to 212.5 °C	CN1C(=O)c2cccc3c([N+](=O)[O-])ccc(c23)C1=O [Compound C2, N-Methyl-4-nitro-1,8-naphthalimide]	> 100 µM	–
191 to 192.5 °C	CCN1C(=O)c2cccc3c([N+](=O)[O-])ccc(c23)C1=O [Compound C3, N-Ethyl-4-nitro-1,8-naphthalimide]	> 100 µM	–
167 to 170 °C	CCN1C(=O)c2cccc3c(Cl)ccc(c23)C1=O [Compound C5, N-Ethyl-4-chloro-1,8-naphthalimide]	> 100 µM	–
115 to 116 °C	CCOC(=O)CCCN1C(=O)c2cccc3c([N+](=O)[O-])ccc(c23)C1=O [Compound D1, N-(Butyric acid ethyl ester)-4-nitro-1,8-naphthalimide]	6.3 µM	–

The remaining lines, values behind:

Structure (SMILES)	melting point	IC50 [1]	also measured
CN(C)CCN1C(=O)c2cccc3cccc(c23)C1O (stereo not shown) [BO-2476, 2-(2-(Dimethylamino)ethyl)-3-hydroxy-2,3-dihydro-1H-benzo[de]isoquinolin-1-one]	129 to 130 °C	–	–
CN(C)CCN1Cc2cccc3cccc(c23)C1=O [BO-2477, 2-(2-(Dimethylamino)ethyl)-2,3-dihydro-1H-benzo[de]isoquinolin-1-one]	253 to 254 °C	–	γ globin-inducing activity, rank among compounds tested (γ globin gene; FIG. 8): highest γ globin-inducing activity; cytotoxicity IC50 against primary erythroid cells ([1]; FIG. 8, Example 2): relatively lower cytotoxicity
CC(=O)Nc1ccc2c3c(cccc13)C(=O)N(CCN(C)C)C2=O [BO-2559, N-(2-(2-(Dimethylamino)ethyl)-1,3-dioxo-2,3-dihydro-1H-benzo[de]isoquinolin-6-yl)acetamide]	278 to 279 °C	–	–
CN(C)CCN1Cc2cccc3c(N)ccc(c23)C1 [BO-2560, 2-(2-(Dimethylamino)ethyl)-2,3-dihydro-1H-benzo[de]isoquinolin-6-amine]	253 to 254 °C	–	–
CN(C)CCN1Cc2cccc3c(N(C)C)ccc(c23)C1 [BO-2563, 2-(2-(Dimethylamino)ethyl)-N,N-dimethyl-2,3-dihydro-1H-benzo[de]isoquinolin-6-amine]	251 to 252 °C	–	–
CCNc1ccc2c3c(cccc13)C(=O)N(CCN(C)C)C2=O [BO-2564, 2-(2-(Dimethylamino)ethyl)-6-(ethylamino)-1H-benzo[de]isoquinoline-1,3(2H)-dione]	253 to 254 °C	–	–
CCNc1ccc2c3c(cccc13)CN(CCN(C)C)C2 [BO-2565, 2-(2-(dimethylamino)ethyl)-N-ethyl-2,3-dihydro-1H-benzo[de]isoquinolin-6-amine]	239 to 240 °C	–	–
O=C1c2cccc3cccc(c23)C(=O)N1c1ccccc1 [Compound A1, N-Phenyl-1,8-naphthalimide]	218 to 220 °C	> 100 µM	solubility [2]: 10 mM (≈ 2730 µg/mL)
O=C1c2cccc3c([N+](=O)[O-])ccc(c23)C(=O)N1c1ccccc1 [Compound A2, N-Phenyl-4-nitro-1,8-naphthalimide]	> 280 °C	0.3 µM	γ globin induction (IC50) (γ globin gene; Table 3, γ globin mRNA induction fold at the compound's IC50, 3 days): 1.1 fold
O=C1c2cccc3c([N+](=O)[O-])ccc(c23)C(=O)N1c1ccc(Cl)c(Cl)c1 [Compound A3, N-(3,4-Dichloro-phenyl)-4-nitro-1,8-naphthalimide]	> 280 °C	5.2 µM	–
COc1cccc(N2C(=O)c3cccc4c([N+](=O)[O-])ccc(c34)C2=O)c1 [Compound A4, N-(3-Methoxy-phenyl)-4-nitro-1,8-naphthalimide]	> 280 °C	21 µM	–
CN(C)CCCN1C(=O)c2cccc3c([N+](=O)[O-])ccc(c23)C1=O [Compound B3, N-(3-Dimethylamino-propyl)-4-nitro-1,8-naphthalimide]	–	2.3 µM	–
CCN1C(=O)c2cccc3cccc(c23)C1=O [Compound C1, N-Ethyl-1,8-naphthalimide]	–	> 100 µM	–
CN1C(=O)c2cccc3c(Cl)ccc(c23)C1=O [Compound C4, N-Methyl-4-chloro-1,8-naphthalimide]	–	> 100 µM	–
C[S+]([O-])c1ccc(-c2nc(-c3ccncc3)c(-c3ccc(F)cc3)[nH]2)cc1 (stereo not shown) [SB203580, reference compound]	–	–	effect of pre-treatment on γ globin elevation triggered by S51021 and SS-2394 (γ globin gene; data not shown): efficiently abolished
